Assay results taken from article PMC9977937, “Molecular insights into the catalytic mechanism of plasticizer degradation by a monoalkyl phthalate hydrolase” (Communications Chemistry, 2023).

Tests used:
[1] = target: T1, MehpH (Gordonia sp. P8219, UniProt Q2MHH5); assay: HPLC of MBP and PA at […] nm; assay type: biochemical; conditions: 1.0 mM MBP, 1.0 µM enzyme, 10% DMSO
T1 construct: synthetic gene in pET30a, His-tagged, E. coli BL21(DE3)
T1 sequence (Q2MHH5 1-311): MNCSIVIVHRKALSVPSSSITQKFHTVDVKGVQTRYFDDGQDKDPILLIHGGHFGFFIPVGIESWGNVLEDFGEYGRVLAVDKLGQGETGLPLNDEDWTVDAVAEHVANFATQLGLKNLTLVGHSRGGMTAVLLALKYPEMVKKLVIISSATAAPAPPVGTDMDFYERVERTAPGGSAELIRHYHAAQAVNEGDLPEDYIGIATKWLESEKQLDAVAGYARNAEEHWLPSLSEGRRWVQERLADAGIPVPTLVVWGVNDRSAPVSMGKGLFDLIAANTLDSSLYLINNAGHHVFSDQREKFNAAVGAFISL

[2] = target: T2, MehpH (crystallization construct) (Gordonia sp. P8219, UniProt Q2MHH5, D259N); assay: X-ray crystallography, […] Å; assay type: binding; conditions: pH 6.2, 16 °C
T2 construct: N-terminal 23 residues deleted (core 24-152 and 225-311, lid 153-224), His-tagged, pET30a, E. coli BL21(DE3); four molecules per asymmetric unit
T2 sequence (Q2MHH5 entry or part of it D259N): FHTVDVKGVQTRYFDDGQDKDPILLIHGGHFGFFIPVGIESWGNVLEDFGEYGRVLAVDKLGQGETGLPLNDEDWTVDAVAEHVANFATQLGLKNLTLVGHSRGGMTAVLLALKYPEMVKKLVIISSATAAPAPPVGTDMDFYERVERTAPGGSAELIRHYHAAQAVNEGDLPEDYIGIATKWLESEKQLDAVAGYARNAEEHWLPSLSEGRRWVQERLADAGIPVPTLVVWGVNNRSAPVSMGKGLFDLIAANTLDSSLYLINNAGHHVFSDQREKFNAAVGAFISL

SMILES: CCCCOC(=O)c1ccccc1C(=O)O [MBP, monobutyl phthalate]
- HPLC of MBP and PA at 254 nm [1]: Hydrolytic activities of MehpH and its variants using MBP as substrate

SMILES: O=C(O)c1ccccc1C(=O)O [PA, phthalic acid]
- X-ray crystallography, 2.8 Å ([2]; covalent ester with Ser125 (acyl-enzyme intermediate), crystals of the D259N mutant with MBP): The shape of the electron density is consistent with that of PA

SMILES: CCCCO [butanol]
- X-ray crystallography, 2.8 Å ([2]; non-covalent, in penetrating tunnel next to active site, one of four molecules, crystals with MBP): we discovered the electron density of butanol in the penetrating tunnel
